Measured values published in patent EP0863769B1 (priority 1996, dated 1998).

What was measured:
Type in all cases: binding, Influenza Viren
Conditions in all cases: read-out: Affinität der Bindung an Virus, Kaff
X31 (A/Aichi/2/68) = target: X31 (A/Aichi/2/68)
A/England/321/77 = target: A/England/321/77
A/USSR/3/85 = target: A/USSR/3/85
A/Sichuan/1/87 = target: A/Sichuan/1/87
A/FW/1/50 = target: A/FW/1/50
A/USSR/90/77 = target: A/USSR/90/77
A/Chile/1/83 = target: A/Chile/1/83
B/USSR/100/83 = target: B/USSR/100/83
B/Ann Arbor/1/86 = target: B/Ann Arbor/1/86
B/Yamagata/11/88 = target: B/Yamagata/11/88

**Q.** For “Poly-N-(2-Hydroxyethyl)-acrylamid mit 20% mol. 6SLN [6SLN-PAA]”, which Kd (X31 (A/Aichi/2/68)) is on record?
**A.** Its Kd is 3000 nM.

**Q.** What about the Kd (A/England/321/77) of the same substance?
**A.** The Kd was 10 nM.

**Q.** What about the Kd (A/USSR/3/85) of the same substance?
**A.** The Kd was 100 nM.

**Q.** And the Kd (A/Sichuan/1/87)?
**A.** Its Kd is 100 nM.

**Q.** What about the Kd (A/FW/1/50) of the same substance?
**A.** The Kd was 3000 nM.

**Q.** And the Kd (A/USSR/90/77)?
**A.** Its Kd is 300 nM.

**Q.** What about the Kd (A/Chile/1/83) of the same substance?
**A.** The Kd was 6000 nM.

**Q.** And the Kd (B/USSR/100/83)?
**A.** Its Kd is 2000 nM.

**Q.** What about the Kd (B/Ann Arbor/1/86) of the same substance?
**A.** Its Kd is 3000 nM.

**Q.** What about the Kd (B/Yamagata/11/88) of the same substance?
**A.** The Kd was 100000 nM.
